Assay: mn = molality of the nth substance listed, in mol/kg
Settings: 298.15 K, 101.3 kPa, Liquid; for binary diffusion coefficient: Taylor dispersion method; for mass density: Vibrating tube method

O=C([O-])c1ccccc1O.[Na+] [sodium salicylate] + O
Settings | binary diffusion coefficient [m2/s] | mass density [kg/m3]
m1 = 0.001004 | 1.06e-09 | 996.965
m1 = 0.002502 | 1.05e-09 | 997.145
m1 = 0.005026 | 1.04e-09 | 997.318
m1 = 0.007532 | 1.02e-09 | 997.434
m1 = 0.01004 | 1.02e-09 | 997.909
m1 = 0.05045 | – | 999.801
m1 = 0.1014 | – | 1003.01

Source: the NIST ThermoML archive (doi:10.1016/j.jct.2019.06.022)
